Reference: patent publication US10618918B2, “Substituted boronic acids as antimicrobials” (priority 2015, dated 2020)
Read-outs that look alike come from different tables or passages of the source.

Key:
KP1086 OXA-48 = assay: Biapenem potentiation (MPC@1), strain KP1086 OXA-48; assay type: cell-based; conditions: minimum BLI concentration inhibiting growth with biapenem 1 μg/mL; tested up to 40 μg/mL
Experimental: (§1) Biapenem was present in the test medium at 1 μg/mL. […] Table 3 summarizes the BLI potency of biapenem potentiation (MPC@1) for two strains overexpressing class A (KPC) and class D (OXA-48) carbapenemases. Biapenem MIC for each strain is also shown.

ec308 SHV-5 = assay: Aztreonam potentiation (MPC@4), strain ec308 SHV-5; conditions: minimum BLI concentration inhibiting growth with aztreonam 4 μg/mL; tested up to 40 μg/mL
ec302 TEM-10 = assay: Aztreonam potentiation (MPC@4), strain ec302 TEM-10; conditions: minimum BLI concentration inhibiting growth with aztreonam 4 μg/mL; tested up to 40 μg/mL
EC1010 CMY-6 = assay: Aztreonam potentiation (MPC@4), strain EC1010 CMY-6; conditions: minimum BLI concentration inhibiting growth with aztreonam 4 μg/mL; tested up to 40 μg/mL
ECL1002 = assay: Aztreonam potentiation (MPC@4), strain ECL1002; conditions: minimum BLI concentration inhibiting growth with aztreonam 4 μg/mL; tested up to 40 μg/mL
KP1009 CTX-M-15 = assay: Aztreonam potentiation (MPC@4), strain KP1009 CTX-M-15; conditions: minimum BLI concentration inhibiting growth with aztreonam 4 μg/mL; tested up to 40 μg/mL
KP1005 CTX-M-14 = assay: Tigemonam potentiation (MPC@4), strain KP1005 CTX-M-14; conditions: minimum BLI concentration inhibiting growth with tigemonam 4 μg/mL; tested up to 40 μg/mL
KP1010 SHV-12 = assay: Aztreonam potentiation (MPC@4), strain KP1010 SHV-12; conditions: minimum BLI concentration inhibiting growth with aztreonam 4 μg/mL; tested up to 40 μg/mL
KP1004 KPC-2 [1] = assay: Biapenem potentiation (MPC@1), strain KP1004 KPC-2; assay type: cell-based; conditions: minimum BLI concentration inhibiting growth with biapenem 1 μg/mL; tested up to 40 μg/mL
Experimental: as §1

AB1054 OXA-23 = assay: Meropenem potentiation (MPC@8), strain AB1054 OXA-23; assay type: cell-based, Acinetobacter baumannii; conditions: minimum BLI concentration inhibiting growth with meropenem 8 μg/mL; tested up to 20 μg/mL
AB1053 OXA-72 = assay: Meropenem potentiation (MPC@8), strain AB1053 OXA-72; assay type: cell-based, Acinetobacter baumannii; conditions: minimum BLI concentration inhibiting growth with meropenem 8 μg/mL; tested up to 20 μg/mL
KP1004 KPC-2 [2] = assay: Aztreonam potentiation (MPC@4), strain KP1004 KPC-2; conditions: minimum BLI concentration inhibiting growth with aztreonam 4 μg/mL; tested up to 40 μg/mL
[3] = molecular target: purified class A, C and D enzymes (β-lactamases) (Klebsiella pneumoniae, UniProt Q6XEC0); assay: biochemical; assay type: biochemical; conditions: purified OXA-48; nitrocefin (NCF) as reporter substrate
[4] = molecular target: purified class A, C and D enzymes (β-lactamases) (Enterobacter cloacae, UniProt P05364); assay: biochemical; assay type: biochemical
[5] = molecular target: T1, purified class A, C and D enzymes (β-lactamases) (Acinetobacter baumannii, UniProt Q9L4P2); assay: biochemical; assay type: biochemical; conditions: purified OXA-23; nitrocefin (NCF) as reporter substrate
T1 construct: rows headed: Ki (OXA-23, NCF), uM; other: purified OXA-23; nitrocefin (NCF) as reporter substrate

[6] = molecular target: purified class A, C and D enzymes (β-lactamases) (Klebsiella pneumoniae, UniProt Q9F663); assay: biochemical; assay type: biochemical; conditions: purified KPC-2; nitrocefin (NCF) as reporter substrate
[7] = molecular target: T2, purified class A, C and D enzymes (β-lactamases) (Pseudomonas aeruginosa, UniProt P24735); assay: biochemical; assay type: biochemical
T2 construct: rows headed: Ki (Pa-AmpC, NCF), uM; other: purified Pa-AmpC; nitrocefin (NCF) as reporter substrate

[8] = molecular target: purified class A, C and D enzymes (β-lactamases) (Escherichia coli, UniProt Q9L5C7); assay: biochemical; assay type: biochemical; conditions: purified CTX-M-14; nitrocefin (NCF) as reporter substrate
[9] = purified P99, nitrocefin (NCF) as reporter substrate
[10] = purified Pa-AmpC, nitrocefin (NCF) as reporter substrate, read-out: Ki (Pa-AmpC, NCF)

Sequence of purified class A, C and D enzymes (β-lactamases) (Escherichia coli, UniProt Q9L5C7) (Q9L5C7 entry or part of it): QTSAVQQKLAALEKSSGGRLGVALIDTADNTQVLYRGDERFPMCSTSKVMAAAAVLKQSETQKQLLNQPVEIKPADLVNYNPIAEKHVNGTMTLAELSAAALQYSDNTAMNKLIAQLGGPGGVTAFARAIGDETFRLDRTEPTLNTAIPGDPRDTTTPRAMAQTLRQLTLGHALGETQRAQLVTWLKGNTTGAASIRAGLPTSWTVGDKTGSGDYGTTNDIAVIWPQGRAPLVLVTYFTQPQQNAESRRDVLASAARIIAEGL
T2 sequence (P24735 whole entry): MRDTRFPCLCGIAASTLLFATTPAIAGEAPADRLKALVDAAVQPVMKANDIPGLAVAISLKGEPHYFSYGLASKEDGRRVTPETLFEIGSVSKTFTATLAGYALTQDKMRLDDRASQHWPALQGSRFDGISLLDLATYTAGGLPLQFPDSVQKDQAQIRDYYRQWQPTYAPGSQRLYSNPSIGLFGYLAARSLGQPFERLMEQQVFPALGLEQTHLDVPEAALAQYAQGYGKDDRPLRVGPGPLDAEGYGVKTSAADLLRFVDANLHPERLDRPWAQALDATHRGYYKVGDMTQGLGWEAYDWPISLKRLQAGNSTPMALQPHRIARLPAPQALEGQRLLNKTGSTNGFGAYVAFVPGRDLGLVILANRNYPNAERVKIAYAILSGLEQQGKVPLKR
T1 sequence (Q9L4P2 whole entry): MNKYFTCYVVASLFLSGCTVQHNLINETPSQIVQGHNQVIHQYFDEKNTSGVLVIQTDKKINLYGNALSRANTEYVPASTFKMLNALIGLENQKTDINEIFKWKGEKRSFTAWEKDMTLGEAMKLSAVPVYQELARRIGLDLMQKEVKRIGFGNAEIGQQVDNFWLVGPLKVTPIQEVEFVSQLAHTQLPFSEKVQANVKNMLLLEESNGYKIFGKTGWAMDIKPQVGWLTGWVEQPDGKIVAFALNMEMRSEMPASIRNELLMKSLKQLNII
Sequence of purified class A, C and D enzymes (β-lactamases) (Enterobacter cloacae, UniProt P05364) (P05364 21-381): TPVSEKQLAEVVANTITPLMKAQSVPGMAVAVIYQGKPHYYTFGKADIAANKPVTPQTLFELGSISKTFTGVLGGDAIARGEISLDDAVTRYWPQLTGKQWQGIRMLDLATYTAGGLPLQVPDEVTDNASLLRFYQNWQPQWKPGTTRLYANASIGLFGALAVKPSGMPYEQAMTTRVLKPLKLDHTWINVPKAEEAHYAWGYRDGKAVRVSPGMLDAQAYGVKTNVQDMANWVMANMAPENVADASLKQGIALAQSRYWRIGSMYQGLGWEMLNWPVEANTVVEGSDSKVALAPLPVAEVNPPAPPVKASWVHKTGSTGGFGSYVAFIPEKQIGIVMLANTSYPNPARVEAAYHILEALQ

SMILES | BPM MPC1 OXA-48 KP1086 (KP1086 OXA-48) | AZT MPC4 SHV-5 ec308 (ec308 SHV-5) | AZT MPC4 TEM-10 ec302 (ec302 TEM-10) | AZT MPC4 CMY-6 EC1010 (EC1010 CMY-6) | AZT MPC4 ECL1002 (ECL1002) | AZT MPC4 CTX-M-15 KP1009 (KP1009 CTX-M-15) | TIG MPC4 CTX-M-14 KP1005 (KP1005 CTX-M-14) | AZT MPC4 SHV-12 KP1010 (KP1010 SHV-12) | BPM MPC1 KP1004 KPC-2 (KP1004 KPC-2 [1]) | MPM MPC8 AB1054 OXA-23 (AB1054 OXA-23) | MPM MPC8 AB1053 OXA-72 (AB1053 OXA-72) | AZT MPC4 KPC-2 KP1004 (KP1004 KPC-2 [2]) | Ki (OXA-48, NCF), uM [3] | Ki (P99, NCF), uM [4] | Ki [5] [nM] | Ki (KPC-2, NCF), uM [6] | Ki [7] [nM] | Ki (CTX-M-14, NCF), uM [8] | Ki (P99, NCF), uM [4, 9] | Ki [7, 10] [nM]
O=C([O-])c1c(CSC2CNC2)ccc2c1O[B-](O)(O)CC2.[Na+].[Na+] [Compound 19, Disodium; 8-(azetidin-3-ylsulfanylmethyl)-4,4-dihydroxy-5-oxa-4-boranuidabicyclo[4.4.0]deca-1(6),7,9-triene-7-carboxylate] | X (X = MPC@1 ≤ 5 μg/mL) | X (X = MPC@4 ≤ 5 μg/mL) | Y (Y = 5 μg/mL < MPC@4 ≤ 20 μg/mL) | X (X = MPC@4 ≤ 5 μg/mL) | Y (Y = 5 μg/mL < MPC@4 ≤ 20 μg/mL) | X (X = MPC@4 ≤ 5 μg/mL) | Z (Z = MPC@4 > 20 μg/mL) | X (X = MPC@4 ≤ 5 μg/mL) | X (X = MPC@1 ≤ 5 μg/mL) | X (X = MPC@1 ≤ 5 μg/mL) | X (X = MPC@1 ≤ 5 μg/mL) | X (X = MPC@4 ≤ 5 μg/mL) | X (X = Ki ≤ 0.1 μM) | X (key: X = Ki ≤ 0.1 μM; Y = 0.1 μM < Ki ≤ 1 μM; Z = Ki > 1 μM) | < 100 | X (X = Ki ≤ 0.1 μM) | < 100 | X (X = Ki ≤ 0.1 μM) | – | –
NCCc1cn(-c2ccc3c(c2C(=O)O)O[B-](O)(O)CC3)nn1 [Compound 14, Disodium; 8-[4-(2-aminoethyl)triazol-1-yl]-4,4-dihydroxy-5-oxa-4-boranuidabicyclo[4.4.0]deca-1(6),7,9-triene-7-carboxylate] | X (X = MPC@1 ≤ 5 μg/mL) | Y (Y = 5 μg/mL < MPC@4 ≤ 20 μg/mL) | Y (Y = 5 μg/mL < MPC@4 ≤ 20 μg/mL) | Y (Y = 5 μg/mL < MPC@4 ≤ 20 μg/mL) | Z (Z = MPC@4 > 20 μg/mL) | Y (Y = 5 μg/mL < MPC@4 ≤ 20 μg/mL) | Z (Z = MPC@4 > 20 μg/mL) | X (X = MPC@4 ≤ 5 μg/mL) | X (X = MPC@1 ≤ 5 μg/mL) | X (X = MPC@1 ≤ 5 μg/mL) | X (X = MPC@1 ≤ 5 μg/mL) | X (X = MPC@4 ≤ 5 μg/mL) | X (X = Ki ≤ 0.1 μM) | Y (key: X = Ki ≤ 0.1 μM; Y = 0.1 μM < Ki ≤ 1 μM; Z = Ki > 1 μM) | < 100 | X (X = Ki ≤ 0.1 μM) | > 1000 | X (X = Ki ≤ 0.1 μM) | – | –
O=C(O)c1c(F)c(F)cc2c1OB(O)CC2 [Compound 35, 6,7-Difluoro-2-hydroxy-3,4-dihydro-1,2-benzoxaborinine-8-carboxylic acid] | X (X = MPC@1 ≤ 5 μg/mL) | X (X = MPC@4 ≤ 5 μg/mL) | X (X = MPC@4 ≤ 5 μg/mL) | X (X = MPC@4 ≤ 5 μg/mL) | X (X = MPC@4 ≤ 5 μg/mL) | X (X = MPC@4 ≤ 5 μg/mL) | Y (Y = 5 μg/mL < MPC@4 ≤ 20 μg/mL) | X (X = MPC@4 ≤ 5 μg/mL) | X (X = MPC@1 ≤ 5 μg/mL) | X (X = MPC@1 ≤ 5 μg/mL) | X (X = MPC@1 ≤ 5 μg/mL) | X (X = MPC@4 ≤ 5 μg/mL) | X (X = Ki ≤ 0.1 μM) | – | < 100 | X (X = Ki ≤ 0.1 μM) | – | X (X = Ki ≤ 0.1 μM) | X (X = Ki ≤ 0.1 μM) | < 100
CON=Cc1ccc2c(c1C(=O)[O-])O[B-](O)(O)CC2.[Na+].[Na+] [Compound 55, Disodium; 4,4-dihydroxy-8-(methoxyiminomethyl)-5-oxa-4-boranuidabicyclo[4.4.0]deca-1(6),7,9-triene-7-carboxylate] | X (X = MPC@1 ≤ 5 μg/mL) | X (X = MPC@4 ≤ 5 μg/mL) | X (X = MPC@4 ≤ 5 μg/mL) | X (X = MPC@4 ≤ 5 μg/mL) | X (X = MPC@4 ≤ 5 μg/mL) | X (X = MPC@4 ≤ 5 μg/mL) | Z (Z = MPC@4 > 20 μg/mL) | X (X = MPC@4 ≤ 5 μg/mL) | X (X = MPC@1 ≤ 5 μg/mL) | Z (Z = MPC@1 > 20 μg/mL) | Z (Z = MPC@1 > 20 μg/mL) | X (X = MPC@4 ≤ 5 μg/mL) | X (X = Ki ≤ 0.1 μM) | X (key: X = Ki ≤ 0.1 μM; Y = 0.1 μM < Ki ≤ 1 μM; Z = Ki > 1 μM) | < 100 | X (X = Ki ≤ 0.1 μM) | < 100 | X (X = Ki ≤ 0.1 μM) | – | –
CS(=O)(=O)Nc1ccc2c(c1C(=O)[O-])O[B-](O)(O)CC2.[Na+].[Na+] [Compound 51, Disodium; 4,4-dihydroxy-8-(methanesulfonamido)-5-oxa-4-boranuidabicyclo[4.4.0]deca-1(6),7,9-triene-7-carboxylate] | X (X = MPC@1 ≤ 5 μg/mL) | X (X = MPC@4 ≤ 5 μg/mL) | X (X = MPC@4 ≤ 5 μg/mL) | Y (Y = 5 μg/mL < MPC@4 ≤ 20 μg/mL) | Z (Z = MPC@4 > 20 μg/mL) | Y (Y = 5 μg/mL < MPC@4 ≤ 20 μg/mL) | Z (Z = MPC@4 > 20 μg/mL) | X (X = MPC@4 ≤ 5 μg/mL) | X (X = MPC@1 ≤ 5 μg/mL) | Z (Z = MPC@1 > 20 μg/mL) | Z (Z = MPC@1 > 20 μg/mL) | Y (Y = 5 μg/mL < MPC@4 ≤ 20 μg/mL) | X (X = Ki ≤ 0.1 μM) | X (key: X = Ki ≤ 0.1 μM; Y = 0.1 μM < Ki ≤ 1 μM; Z = Ki > 1 μM) | < 100 | X (X = Ki ≤ 0.1 μM) | < 100 | X (X = Ki ≤ 0.1 μM) | – | –
O=C(O)c1c(CNc2nncs2)ccc2c1OB(O)CC2 [Compound 64, 2-Hydroxy-7-[(1,3,4-thiadiazol-2-ylamino)methyl]-3,4-dihydro-1,2-benzoxaborinine-8-carboxylic acid] | Y (Y = 5 μg/mL < MPC@1 ≤ 20 μg/mL) | X (X = MPC@4 ≤ 5 μg/mL) | X (X = MPC@4 ≤ 5 μg/mL) | X (X = MPC@4 ≤ 5 μg/mL) | X (X = MPC@4 ≤ 5 μg/mL) | X (X = MPC@4 ≤ 5 μg/mL) | Y (Y = 5 μg/mL < MPC@4 ≤ 20 μg/mL) | X (X = MPC@4 ≤ 5 μg/mL) | X (X = MPC@1 ≤ 5 μg/mL) | Y (Y = 5 μg/mL < MPC@1 ≤ 20 μg/mL) | Y (Y = 5 μg/mL < MPC@1 ≤ 20 μg/mL) | X (X = MPC@4 ≤ 5 μg/mL) | X (X = Ki ≤ 0.1 μM) | – | < 100 | X (X = Ki ≤ 0.1 μM) | – | X (X = Ki ≤ 0.1 μM) | X (X = Ki ≤ 0.1 μM) | < 100
